Data from paper PMC4788153, “Impact of Cytochrome P450 2D6 Function on the Chiral Blood Plasma Pharmacokinetics of 3,4-Methylenedioxymethamphetamine (MDMA) and Its Phase I and II Metabolites in Humans” (PLoS ONE, 2016).
Where two headings read alike, the source gives them in different places.

Experiments:
[1] = Chiral plasma pharmacokinetics of bupropion and hydroxybupropion; settings: bupropion+MDMA vs bupropion+placebo
Protocol: Washout periods between test sessions were at least 10 days. […] Blood samples were collected -2, 0, 0.33, 0.67, 1, 1.5, 2, 2.5, 3, 4, 6, 8, and 24 h after MDMA or placebo administration. All of the subjects were genotyped [47] and phenotyped [48] for CYP2D6 activity. The study included 13 EMs, three IMs, and no PMs (genotyping and phenotyping congruent) [40]. Subjects were also genotyped for CYP2B6 (reduced-activity single nucleotid polymorphism rs3745274 (516G>T, CYP2B6*6 or CYP2B6*9) using commercial TaqMan assay (LuBio Science, Lucerne, Switzerland). There were 9 subjects with the G/G, 6 subjects with the G/T and one subject with the T/T genotype. Subjects with G/T or T/T genotype were considered to have a reduced CYP2B6 function.
The method was fully validated according to national and international guidelines [49, 50].
The time interval after dosing until detection of the first positive sample was designated as the time of first detection (tonset). […] Mann-Whitney tests (95% confidence interval) were used to test for between-subject differences between CYP2D6 EMs (n = 13) and CYP2D6 IMs (n = 3). The statistical analyses were performed using Prism 6.00 software (GraphPad Software, La Jolla, CA, USA).
An aliquot of 550 µl was transferred into an autosampler vial, 50 µl of formic acid were added and the mixture was evaporated to dryness under a gentle stream of nitrogen at 40 °C. The residue was dissolved in 100 µl of mobile phase 20 mM ammonium acetate buffer, pH 6.6 (A) and methanol (B) (1:1, v/v). 10 µl of this solution were injected into the LC-MS/MS system.
The analysis was performed using a Thermo Fischer Ultimate 3000 UHPLC system (Thermo Fisher, San Jose, California, USA) coupled to an ABSciex 5500 QTtrap linear ion trap quadrupole mass spectrometer (ABSciex, Darmstadt/Germany) with positive electrospray ionization (ESI) in multiple reaction monitoring mode (MRM).
The LC settings were as follows: Chiral AGP column (100 x 4.0 mm, 5 µm), gradient elution with 20 mM ammonium formate buffer in water (pH 6.6, A) and methanol (B) . The flow rate was 0.8 ml/min with the following gradient: start conditions 10% B for 0.5 min, 0.5-6 min to 30% B, 6-7 min to 50% B, 7-9 min to 80% B hold at 80% B for 1 min, at 10 min reequilibrating to 10% B for 2 min. Injection volume was 10 µl.
The Turbo V ion source equipped with a stainless steel electrode (100 µm internal diameter) was operated in positive ESI mode with the following MS conditions: gas 1, nitrogen (50 psi); gas 2, nitrogen (60 psi); ion spray voltage, 5500; ion-source temperature, 550 °C; curtain gas, nitrogen (30 psi), collision gas, high. The MS was operated in the MRM mode with a scan time of 50 ms using 3 transitions for each analyte except for the ISs where 1 MRM transition was used. […] The MS was controlled by analyst 1.6.2 software.

[2] = Chiral plasma pharmacokinetics of MDMA and its phase I and II metabolites after controlled MDMA administration; type: in vivo, human; settings: for AUC(0-t) / Tmax / Cmax / half-life: human, plasma; for prolongation of t1/2 after bupropion pretreatment / reduction of Cl/F after bupropion pretreatment: bupropion vs placebo pretreatment; for prolongation of t1/2 after bupropion pretreatment / reduction of Cl/F after bupropion pretreatment / change in AUC24 after bupropion pretreatment / change in Cmax after bupropion pretreatment: CYP2D6 EMs; for change in AUC24 after bupropion pretreatment / change in Cmax after bupropion pretreatment: bupropion+MDMA vs placebo+MDMA, unsigned = increase; for reduction of Cmax by bupropion: metabolite stereoisomers, bupropion pretreatment vs placebo (abstract)
Protocol: Blood plasma samples were analyzed non-stereoselectively as reported previously and reanalyzed for the present report using liquid chromatography-mass spectrometry/mass spectrometry after chiral derivatization with Marfey’s reagent as described previously. The method was fully validated, including selectivity, recovery, matrix effects, bias and imprecision, stability, and limit of quantification.

[3] = both sexes, oral, 125 mg, placebo+MDMA (125 mg), CYP2D6 EM, n=13, plasma, read-out: AUC0-24h R
[4] = both sexes, oral, 125 mg, placebo+MDMA (125 mg), CYP2D6 EM, n=13, plasma, read-out: tmax R
[5] = both sexes, oral, bupropion+MDMA (125 mg), CYP2D6 EM (EM/Bup), n=13, plasma, read-out: AUC0-24h R
[6] = both sexes, oral, bupropion+MDMA (125 mg), CYP2D6 EM (EM/Bup), n=13, plasma, read-out: Cmax R
[7] = both sexes, oral, bupropion+MDMA (125 mg), CYP2D6 EM (EM/Bup), n=13, plasma, read-out: t1/2 R (converted)
[8] = both sexes, oral, bupropion+MDMA (125 mg), CYP2D6 EM (EM/Bup), n=13, plasma, read-out: tmax R
[9] = both sexes, oral, placebo+MDMA (125 mg), CYP2D6 EM, n=13, plasma, read-out: Cmax R
[10] = both sexes, oral, placebo+MDMA (125 mg), CYP2D6 EM, n=13, plasma, read-out: t1/2 R (converted)
[11] = bupropion+MDMA (125 mg), CYP2D6 EM (EM/Bup), n=13, plasma
[12] = placebo+MDMA (125 mg), CYP2D6 EM, n=13, plasma
[13] = placebo+MDMA (125 mg), CYP2D6 IM, n=3, plasma
[14] = both sexes, oral, 125 mg, placebo+MDMA (125 mg), CYP2D6 EM, n=13, plasma, read-out: AUC0-24h S
[15] = both sexes, oral, 125 mg, placebo+MDMA (125 mg), CYP2D6 EM, n=13, plasma, read-out: Cmax S
[16] = both sexes, oral, 125 mg, placebo+MDMA (125 mg), CYP2D6 EM, n=13, plasma, read-out: t1/2 S (converted)
[17] = both sexes, oral, 125 mg, placebo+MDMA (125 mg), CYP2D6 EM, n=13, plasma, read-out: tmax S
[18] = both sexes, oral, bupropion+MDMA (125 mg), CYP2D6 EM (EM/Bup), n=13, plasma, read-out: AUC0-24h S
[19] = both sexes, oral, bupropion+MDMA (125 mg), CYP2D6 EM (EM/Bup), n=13, plasma, read-out: Cmax S
[20] = both sexes, oral, bupropion+MDMA (125 mg), CYP2D6 EM (EM/Bup), n=13, plasma, read-out: t1/2 S (converted)
[21] = both sexes, oral, bupropion+MDMA (125 mg), CYP2D6 EM (EM/Bup), n=13, plasma, read-out: tmax S
[22] = im, placebo+MDMA (125 mg), CYP2D6 IM, n=3, plasma, read-out: AUC0-24h S
[23] = im, placebo+MDMA (125 mg), CYP2D6 IM, n=3, plasma, read-out: Cmax S
[24] = im, placebo+MDMA (125 mg), CYP2D6 IM, n=3, plasma, read-out: t1/2 S (converted)
[25] = im, placebo+MDMA (125 mg), CYP2D6 IM, n=3, plasma, read-out: tmax S
[26] = placebo-pretreated EMs, same-configuration MDMA enantiomer

SMILES	change in AUC24 after bupropion pretreatment [2] [%]	change in Cmax after bupropion pretreatment [2] [%]	AUC(0-t) [2, 14] [µM·h]	Cmax [2, 15] [nM]	half-life [2, 16] [h]	Tmax [2, 17] [h]	AUC(0-t) [2, 18] [µM·h]	Cmax [2, 19] [nM]	half-life [2, 20] [h]	Tmax [2, 21] [h]	AUCtotal S [2, 11]	AUC(0-t) [2, 22] [µM·h]	Cmax [2, 23] [nM]	half-life [2, 24] [h]	Tmax [2, 25] [h]	AUCtotal S [2, 12]	AUCtotal S [2, 13]	metabolite/MDMA ratio, mean constant (after approximately 2 h) ([2]; IMs)	metabolite/MDMA ratio, mean initial (highest, first hour) ([2]; IMs)	metabolite/MDMA ratio, mean constant (after approximately 2 h) ([2]; bupropion-pretreated EMs)	other results
C[C@H]1NC(C)(C)CO[C@]1(O)c1cccc(Cl)c1 [R,R-hydroxybupropion, hydroxybupropion]																					effect of MDMA co-administration on plasma concentrations [1]: did not significantly alter
C[C@@H]1NC(C)(C)CO[C@@]1(O)c1cccc(Cl)c1 [S,S-hydroxybupropion, hydroxybupropion]																					effect of MDMA co-administration on plasma concentrations [1]: did not significantly alter
CN[C@H](C)Cc1ccc2c(c1)OCO2 [R-MDMA, 3,4-methylenedioxymethamphetamine]	25	9																			AUC(0-t) [2, 3]: 8.7 µM·h; Tmax [2, 4]: 2.9 h; AUC(0-t) [2, 5]: 10.9 µM·h; Cmax [2, 6]: 750 nM; half-life [2, 7]: 10.8 h; Tmax [2, 8]: 3.3 h; Cmax [2, 9]: 690 nM; half-life [2, 10]: 8.2 h; prolongation of t1/2 after bupropion pretreatment [2]: 31%; reduction of Cl/F after bupropion pretreatment [2]: -23%; AUCtotal R [2, 11]: 14.2 (3.7) μmol/l*h-1; CL/F R [2, 11]: 31.3 (8.2) l/h; AUCtotal R [2, 12]: 10.4 (3.6) μmol/l*h-1; CL/F R [2, 12]: 40.4 (14.2) l/h; AUCtotal R [2, 13]: 14.5 (4.3) μmol/l*h-1; CL/F R [2, 13]: 29.8 (7.4) l/h
CN[C@@H](C)Cc1ccc2c(c1)OCO2 [S-MDMA, 3,4-methylenedioxymethamphetamine]	38	16	4.9	560	4.5	2.1	6.8	650	5.7	2.5	7.2 (1.7) μmol/l*h-1	6.8	720	5.1	2.3	5.1 (1.5) μmol/l*h-1	7.1 (2.0) μmol/l*h-1				prolongation of t1/2 after bupropion pretreatment [2]: 26%; reduction of Cl/F after bupropion pretreatment [2]: -31%; CL/F S [2, 11]: 50.5 (13.5) l/h; CL/F S [2, 12]: 72.8 (26.2) l/h; CL/F S [2, 13]: 50.4 (12.6) l/h
CNC(C)Cc1ccc(OC2OC(C(=O)O)C(O)C(O)C2O)c(OC)c1 (centres unmarked) [R-HMMA glucuronide]	-71	-77																0.05	0.05	0.05	AUC(0-t) [2, 3]: 3.3 µM·h; Tmax [2, 4]: 3.7 h; AUC(0-t) [2, 5]: 0.96 µM·h; Cmax [2, 6]: 49 nM; half-life [2, 7]: 31.7 h; Tmax [2, 8]: 7.6 h; Cmax [2, 9]: 210 nM; half-life [2, 10]: 16 h; AUCtotal R [2, 11]: 2.3 (1.5) μmol/l*h-1; tonset (time of first detection), mean ([2]; bupropion-pretreated CYP2D6 EMs): 0.73 h; metabolite/MDMA ratio, mean initial (highest, first hour) ([2]; bupropion-pretreated EMs): 0.09; AUCtotal R [2, 12]: 5.5 (4.3) μmol/l*h-1; AUCtotal R [2, 13]: 2.0 (1.7) μmol/l*h-1; tonset (time of first detection), mean ([2]; placebo-pretreated CYP2D6 EMs): 0.41 h; metabolite/MDMA ratio, mean constant (after approximately 2 h) ([2]; placebo-pretreated EMs): 0.40; metabolite/MDMA ratio, mean initial (highest, first hour) [2, 26]: 1.3
CNC(C)Cc1ccc(OC2OC(C(=O)O)C(O)C(O)C2O)c(OC)c1 (centres unmarked) [HMMA glucuronide]																					reduction of Cmax by bupropion [2]: approximately 40%
CN[C@@H](C)Cc1ccc(OS(=O)(=O)O)c(O)c1 [S-DHMA 4-sulfate]	-50	-61	0.64	55	8.1	1.7	0.32	21	14.3	2.4	0.48 (0.19) μmol/l*h-1	0.4	29	12.1	2.1	0.80 (0.37) μmol/l*h-1	0.59 (0.30) μmol/l*h-1	0.05	0.91	0.04	metabolite/MDMA ratio, mean initial (highest, first hour) ([2]; bupropion-pretreated EMs): 0.60; metabolite/MDMA ratio, mean constant (after approximately 2 h) ([2]; placebo-pretreated EMs): 0.11; metabolite/MDMA ratio, mean initial (highest, first hour) [2, 26]: 3.8
CC(N)Cc1ccc2c(c1)OCO2 (centres unmarked) [S-MDA, 3,4-methylenedioxyamphetamine]	-20	-24	0.61	41	9.2	4.6	0.49	31	11.1	5.2	0.69 (0.17) μmol/l*h-1	0.65	42	10.6	4.4	0.76 (0.27) μmol/l*h-1	0.87 (0.31) μmol/l*h-1				
CN[C@@H](C)Cc1ccc(O)c(OS(=O)(=O)O)c1 [S-DHMA 3-sulfate]	-56	-67	6.3	590	7.3	1.5	2.8	200	11.3	2.4	3.7 (2.1) μmol/l*h-1	3	280	7	1.9	7.1 (3.1) μmol/l*h-1	3.3 (1.1) μmol/l*h-1	0.42	8.8	0.34	metabolite/MDMA ratio, mean initial (highest, first hour) ([2]; bupropion-pretreated EMs): 1.8; metabolite/MDMA ratio, mean constant (after approximately 2 h) ([2]; placebo-pretreated EMs): 1.1; metabolite/MDMA ratio, mean initial (highest, first hour) [2, 26]: 33
CNC(C)Cc1ccc(O)c(OS(=O)(=O)O)c1 (centres unmarked) [DHMA 3-sulfate]																					reduction of Cmax by bupropion [2]: approximately 40%
